Values belong to the compound of their own block, whether it stands above or below them.
Tests used:
[1] = test system: DLD-1 cells; assay: In vitro drug exposure, immunoblot of cleaved PARP and cleaved caspase-3, DLD-1 cells; format: cell-based, human; settings: 24 h, 0-5000 nM
Method: (§1) For cell cycle analysis, SW620 and DLD-1 cells were propagated to 50% confluency in 6 cm plates and treated with AZD-1152-hydroxyquinazoline pyrazol anilide (HQPA) (Selleckchem), 0, 10, 100, 1000, or 5000 nM, for 24 or 48 hrs and prepared for flow cytometry as described (2). Propidium iodide (PI)-stained cells were analyzed by flow cytometry (FACStar PLUS, Becton-Dickinson). Data analysis was performed using CellQuest software (Becton-Dickinson) by manually gating to define and quantify sub-G0, G1, S, G2/M, and polyploidy populations. For assay of apoptosis following in vitro AZD-1152-HQPA exposure, SW620 and DLD-1 cells were seeded as sub-confluent monolayer cultures at a density of 1×10^4 per well into 96-well, black wall/bottom plates (BD Biosciences), allowed to adhere for 24 h, and treated with AZD-1152-HQPA, 0, 10, 50, 75, 100, or 1,000 nM, for 24 hrs. Apoptosis was assessed using the Caspase-Glo 3/7 reagent, in accordance with manufacturer's instructions, and analyzed using a Synergy 4 plate reader.
(§2) After 24 h of drug exposure, in vitro cell samples were collected from 10-cm plates. Medium was removed and cell monolayers washed with 1× phosphate buffered saline (PBS) followed by addition of […] of lysis buffer containing: 7 mL of CelLytic M lysis buffer (Sigma), mini protease inhibitor cocktail (Roche), and […] of phosphatase inhibitor cocktail 1 and 2 (Sigma). […]

[2] = test system: SW620 cells; assay: In vitro drug exposure, immunoblot of cleaved PARP and cleaved caspase-3, SW620 cells; format: cell-based, human; settings: 24 h, 0-5000 nM
Method: as §1, §2

[3] = test system: SW620 xenografts; assay: Cleaved caspase-3 immunohistochemistry, SW620 xenografts; format: in vivo, athymic nude mice; settings: after imaging Day 5
Method: Dual xenograft-bearing mice were sequentially injected with 1×10^7 SW620 and 5×10^6 DLD-1 human CRC cells subcutaneously onto the left or right hind limbs (respectively) of 5- to 6-week old female, athymic nude mice (Harlan Sprague-Dawley). Palpable tumors were observed 2-3 weeks following inoculation. Animals bearing SW620 and DLD-1 xenograft tumors were treated with vehicle or AZD-1152 (25 mg/kg, DMSO) via intraperitoneal injection once daily for five days, analogous to previous work. In vivo PET imaging studies were performed on Day 5, approximately 4-6 h after treatment. Tumor tissues were harvested immediately following conclusion of imaging, fixed for 24 h in 5% buffered formalin, and blocked in paraffin. Immunohistochemistry for cleaved caspase-3 (Cell Signaling, #9664) was carried out as previously described. Tissues were stained using standard H&E methods and reviewed by an expert gastrointestinal pathologist (M. Kay Washington). […] Semi-quantitative IHC analysis was performed using the image processing software ImageJ and is further described below. For semi-quantitative analysis of cleaved caspase-3 IHC, the public domain image processing software ImageJ was used to selectively measure the area of positive staining of each cohort through manual threshold manipulation of hue, pixel saturation, and brightness. […]

[4] = molecular target: T1, caspase-3 (Homo sapiens, UniProt P42574); assay: Enzyme selectivity assay, caspase-3; format: biochemical; settings: fluorescence assay kit, 0.0003-10 μM
T1 construct: purchased BPS Bioscience
T1 sequence (P42574 29-175 limits assumed): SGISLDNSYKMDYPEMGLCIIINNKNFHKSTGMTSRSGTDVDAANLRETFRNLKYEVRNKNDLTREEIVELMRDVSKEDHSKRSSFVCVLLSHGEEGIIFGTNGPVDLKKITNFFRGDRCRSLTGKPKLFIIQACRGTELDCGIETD
T1 sequence (P42574 176-277 limits assumed): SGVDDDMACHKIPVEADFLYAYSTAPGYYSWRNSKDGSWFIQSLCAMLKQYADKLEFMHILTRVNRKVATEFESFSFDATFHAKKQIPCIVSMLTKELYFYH
Method: (§3) Relative enzyme inhibition of [^19F]FB-VAD-FMK was evaluated against caspase-3/6/7/8 using homogeneous caspase fluorescence assay kits (BPS Bioscience) and compared to parent peptide. Caspase inhibitor dissolved in caspase assay buffer and 1% DMSO (0.0003-10 μM) was combined with the caspase assay substrate and enzyme at room temperature for 30 min in accordance with the manufacturer's instructions. Fluorescence intensity was measured at an excitation of 360 nm and an emission of 460 nm using an Infinite M1000 microplate reader (Tecan).

[5] = molecular target: T2, caspase-7 (Homo sapiens, UniProt P55210); assay: Enzyme selectivity assay, caspase-7; format: biochemical; settings: fluorescence assay kit, 0.0003-10 μM
T2 construct: purchased BPS Bioscience
T2 sequence (P55210 24-198 limits assumed): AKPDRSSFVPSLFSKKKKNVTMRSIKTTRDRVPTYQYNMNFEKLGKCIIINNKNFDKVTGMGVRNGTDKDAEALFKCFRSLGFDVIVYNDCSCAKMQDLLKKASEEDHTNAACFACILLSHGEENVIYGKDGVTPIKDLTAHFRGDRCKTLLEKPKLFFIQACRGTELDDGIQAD
T2 sequence (P55210 207-303 limits assumed): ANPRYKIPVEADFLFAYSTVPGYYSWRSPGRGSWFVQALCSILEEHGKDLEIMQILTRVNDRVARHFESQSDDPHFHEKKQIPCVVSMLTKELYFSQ
Method: as §3

[6] = Lipophilicity (log P7.5) by reversed phase HPLC; format: physicochemical; settings: for log P7.5: reversed phase HPLC, phosphate buffer pH 7.5, standard curve
Method: [^19F]FB-VAD-FMK and [^127I]IZ-VAD-FMK were synthesized as described below. VAD-FMK (American Peptide) and Z-VAD-FMK (TOCRIS Bioscience, #2163) were obtained commercially and used without further purification. Relative enzyme selectivity of [^19F]FB-VAD-FMK compared to parent peptide was evaluated as described below. Lipophilicity measurements (Log P7.5) of peptide derivatives were determined analogously to reported methods and described below.
Lipophilicity characterization of compounds (3) and (5), as well as Z-VAD-FMK, was performed through log P7.5 quantification using methodology analogous to those previously reported (1). Using reversed phase HPLC (Phenomenex Luna C18, 5 μm, 100 Å, 4.6×250 mm) and a (85:15) phosphate buffer (2 mM, pH 7.5) isocratic system (1 mL/min), log P7.5 values were calculated using an average of compound retention times from three individual runs and standard curve derived linear regression. The following standards with known log P values were used for curve development: catechol, aniline, benzene, bromobenze, toluene, ethylbenzene, 2-chlorobiphenyl, biphenyl, 1-chloronaphthalene, 1,2,3-trimethylbenzene, 1,2,3,4-tetrachlorobenzene, 1,2,4,5-tetrabromobenzene, and pentachlorobenzene.

[7] = test system: caspase-3/7 activity in DiFi cells; assay: Cellular caspase inhibition assay (Caspase-Glo 3/7); format: cell-based
Method: DiFi cells were propagated in Dulbecco's Modified Eagle's Medium (DMEM, Mediatech) and supplemented with 10% fetal bovine serum (Atlanta Biologicals) and 1 mg/mL gentamycin sulfate (Gibco) in a 95% humidity, 5% CO2, 37° C. atmosphere. Cells were seeded as sub-confluent monolayer cultures at a density of 1×10^4 per well into 96-well, black wall/bottom plates (BD Biosciences) and allowed to adhere for 24 h at 37° C. […] Cell media was then replaced with 1×PBS containing inhibitor (0, 10, 100, 1000, 10000 nM) and incubated at 37° C. for 30 min Inhibition was assessed using Caspase-Glo 3/7 reagent in accordance with the manufacturer's instructions. Luminescence was quantified using a Synergy 4 plate reader.

[8] = molecular target: T3, caspase-8 (Homo sapiens, UniProt Q14790); assay: Enzyme selectivity assay, caspase-8; format: biochemical; settings: fluorescence assay kit, 0.0003-10 μM; compared with caspases-3/6/7
T3 construct: purchased BPS Bioscience
T3 sequence (Q14790 217-374 limits assumed): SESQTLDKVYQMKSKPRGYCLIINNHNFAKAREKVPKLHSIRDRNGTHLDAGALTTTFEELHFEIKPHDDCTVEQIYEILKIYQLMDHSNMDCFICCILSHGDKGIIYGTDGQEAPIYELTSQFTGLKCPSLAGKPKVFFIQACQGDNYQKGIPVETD
T3 sequence (Q14790 385-479 limits assumed): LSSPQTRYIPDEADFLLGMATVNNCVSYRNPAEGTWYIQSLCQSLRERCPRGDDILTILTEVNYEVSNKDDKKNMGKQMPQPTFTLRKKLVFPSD
Method: as §3

[9] = molecular target: T4, caspase-6 (Homo sapiens, UniProt P55212); assay: Enzyme selectivity assay, caspase-6; format: biochemical; settings: fluorescence assay kit, 0.0003-10 μM
T4 construct: purchased BPS Bioscience
T4 sequence (P55212 24-179 limits assumed): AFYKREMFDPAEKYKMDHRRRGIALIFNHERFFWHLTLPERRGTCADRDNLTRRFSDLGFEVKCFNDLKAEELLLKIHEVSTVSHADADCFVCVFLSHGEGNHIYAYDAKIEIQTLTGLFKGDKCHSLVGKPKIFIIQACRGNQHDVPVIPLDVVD
T4 sequence (P55212 194-293 limits assumed): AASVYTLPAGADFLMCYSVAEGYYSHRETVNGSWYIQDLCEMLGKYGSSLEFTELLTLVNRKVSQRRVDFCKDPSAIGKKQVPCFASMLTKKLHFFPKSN
Method: as §3

[10] = in vivo
[11] = set-up: species or system male C57BL/6 mice; settings: mouse, in vivo, iv
Method: Studies involving animals were conducted in accordance with federal and institutional guidelines. Biodistribution studies were performed using male C57BL/6 mice. A detailed description of in vitro drug response studies that support the subsequently described animal models and drug therapies is provided below. For all imaging studies, mice were maintained under 2% isofluorane anesthesia in 100% oxygen at 2 L/min and kept warm via a circulating water heating pad for the duration of the PET scan. Small-animal PET imaging was performed using a dedicated Concorde Microsystems Focus 220 microPET scanner (Siemens Preclinical Solutions). Animals were administered 7.4-9.3 MBq of [^18F]FB-VAD-FMK via intravenous injection. Both static and dynamic data sets were acquired. For static scans, animals were allowed free access to food and water during a 20-40 minute uptake period, followed by anesthetization and a 20-minute image acquisition. Analogously, sixty minute dynamic acquisitions for all xenografts were initiated at the time of [^18F]FB-VAD-FMK injection. Radiochemical preparation of [^18F]FB-VAD-FMK (Fig. S3) was performed as described above. The in vivo biodistribution of [^18F]FB-VAD-FMK was evaluated by ex vivo tissue counting at 60 min post-administration and correlative PET imaging up to 75 min post-administration.

Compound: CCN(CCO)CCCOc1ccc2c(Nc3cc(CC(=O)Nc4cccc(F)c4)[nH]n3)ncnc2c1 [AZD-1152-HQPA, AZD-1152-hydroxyquinazoline pyrazol anilide]
cleaved PARP and cleaved caspase-3 levels [1]: concentration-dependent increases | cleaved PARP and cleaved caspase-3 levels [2]: concentration-dependent increases

Compound: CCN(CCCOc1ccc2c(Nc3cc(CC(=O)Nc4cccc(F)c4)n[nH]3)ncnc2c1)CCOP(=O)(O)O [AZD-1152]
caspase-3 immunoreactivity compared to vehicle [3]: elevated caspase-3 immunoreactivity

Compound: Val-Ala-Asp(OMe)-fluoromethylketone [VAD-FMK, American Peptide, reference compound]
inhibition potency, caspase-3 [4]: single micro molar potency | inhibition potency, caspase-7 [5]: single micro molar potency | inhibition potency, caspase-8 [8]: slightly greater potency | inhibition potency, caspase-6 [9]: single micro molar potency

Compound: benzyloxycarbonyl-Val-Ala-Asp(OMe)-fluoromethylketone [Z-VAD-FMK, obtained commercially (TOCRIS Bioscience, #2163), reference compound]
log P7.5 [6]: 2.20

The next lines start with results.

inhibition potency, caspase-3 [4]: single micro molar potency | inhibition potency, caspase-7 [5]: single micro molar potency | times less lipophilic than Z-VAD-FMK and [^127I]IZ-VAD-FMK ([6]; from log P7.5 values): 50-100 times | log P7.5 [6]: 1.41 | inhibition potency, caspase-8 [8]: slightly greater potency | inhibition potency, caspase-6 [9]: single micro molar potency
Compound: COC(=O)C[C@H](NC(=O)[C@H](C)NC(=O)[C@@H](NC(=O)c1ccc(F)cc1)C(C)C)C(=O)CF [[^19F]FB-VAD-FMK]
inhibition of caspase-3/7 activity ([7]; DiFi cells in log-phase growth (untreated)): nanomolar concentrations | inhibition of caspase-3/7 activity ([7]; DiFi cells, apoptosis induced by cetuximab 0.5 μg/mL 24 h): comparable efficacy to the parent peptide

parent compound in bile and urine samples [10]: ≥ 50% | radioactivity in brain, lung, or bone [11]: Very little radioactivity | tissue activity in kidneys and liver [11]: greatest activity
Compound: [^18F]4-fluorobenzylcarbonyl-Val-Ala-Asp(OMe)-fluoromethylketone [[^18F]FB-VAD-FMK]

log P7.5 [6]: 2.38
Compound: [^127I]4-iodobenzyloxycarbonyl-Val-Ala-Asp(OMe)-fluoromethylketone [[^127I]IZ-VAD-FMK]
